# Publication PMC1525162 (BMC Pharmacology, 2006)
# “Also recorded” adds a separate entry of the source. Bridge positions count the residues as written; N and C are the ends. Ends that are not written are not given here. Peptide text beside a SMILES is read from it.
# Key:
# [1] = system: endogenous CGRP receptor expressed on SK-N-MC human neuroblastoma cells; conditions: cited from earlier work
# Description: (§1) Consequently, it is reasonable to assume that interactions of CGRP-F37 with the mature CLR-RAMP1 heterodimer would necessitate a more complex relationship in order to account for the high affinity binding associated with ...
# CGRP receptor = conditions: displaced by CGRP and CGRP(8–37); cited from earlier work
# Description: as §1
# [2] = biological target: wild type CLR-RAMP1 (transiently transfected HEK293T-RAMP1 cells) (Homo sapiens, UniProt O60894+Q16602); assay: cAMP generation, wild type CLR; type: cell-based
# [3] = system: L24A, L34A and L24A,L34A CLR-RAMP1 heterodimers versus wild type; assay: Competition/saturation binding, leucine mutant CLRs compared with wild type; parameters: species or system human; conditions: for affinity at leucine mutants compared with wild type: L34A, L24A,L34A vs wild type CLR
# Method: (§2) A crude cell membrane preparation was prepared as previously described. Briefly, HEK293T-RAMP1 membranes were prepared by scraping and transferring cells to a 50 mL conical tube using cold HBSS followed with two washings by centrifugation at 1000 × g using cold HBSS. The intact cell pellet was resuspended in 10 mL of 0.25 M sucrose containing a protease inhibitor cocktail consisting of 10μg/mL benzamidine, 10μg/mL leupeptin, and 20μg/mL phenylmethysulfonylfluoride. The cells were disrupted by freezing followed by Dounce homogenization of the thawed suspension using 20 strokes from a loose fitting (B) pestle. This mixture was then centrifuged at 1260 × g for 5 min at 4°C. Buffer A (20 mM HEPES, pH 7.5, 1.4 mM EGTA, 12.5 mM MgCl2, 10μg/mL benzamidine, 10μg/mL leupeptin, and 20μg/mL phenylmethysulfonylfluoride) was added to the supernatant and centrifuged again at 30,000 × g for 15 min at 4°C. The resultant pellet was kept, resuspended in buffer A then centrifuged once more at 30,000 × g for 15 min at 4°C. The final crude membrane pellet was resuspended in buffer A containing 10% glycerol and stored in aliquots at -70°C until used for radioligand binding. Protein concentrations were measured using the method of Bradford.
# The radioligand binding protocol used for this study was performed as previously described. […] Binding was stopped by filtering the membranes though Whatman GF/C glass fiber filters, followed by 5 – 5 mL washes with cold buffer B (20 mM HEPES, pH 7.5, 1.4 mM EGTA, 12.5 mM MgCl2) to remove any unbound drug. Amounts of total and non-specific radiolabel bound to cell membranes were calculated from radioactive counts remaining on the glass fiber filters.
# [4] = system: wild type and L24A, L34A, L24A,L34A CLR-RAMP1 (HEK293T-RAMP1 cells); assay: cAMP generation, wild type and leucine mutant CLRs compared; conditions: L24A, L34A, L24A,L34A vs wild type CLR
# [5] = system: endogenous CGRP receptors on acutely isolated pancreatic acinar cells; parameters: method as in PMID 7689110; conditions: cited from earlier work
# [6] = biological target: T1, wild type CLR-RAMP1 heterodimer (HEK293T-RAMP1 membranes) (Homo sapiens, UniProt O60894+Q16602); assay: Competition radioligand binding, wild type CLR; conditions: compared to Ki of CGRP
# Method: as §2, with “The final crude membrane pellet was resuspended in buffer A containing 10% glycerol and stored in aliquots at -70°C until used for radioligand binding.” left out
# (§3) The radioligand binding protocol used for this study was performed as previously described. […] Amounts of total and non-specific radiolabel bound to cell membranes were calculated from radioactive counts remaining on the glass fiber filters.
# [7] = biological target: endogenous CGRP receptors expressed in the guinea pig atria; parameters: method as in Rovero et al., 1992; conditions: estimated from functional characterization, n = 3, ref Rovero et al., 1992, read-out: Reported Wild Type, equilibrium dissociation constant; cited from earlier work
# [8] = biological target: T1, wild type CLR-RAMP1 heterodimer (HEK293T-RAMP1 membranes); assay: Saturation binding of [^125I-Tyr]CGRP(8–37), wild type CLR; conditions: per mg wild type membrane protein; mean ± S.E., n = 3 in duplicate
# Method: as §2, with “The final crude membrane pellet was resuspended in buffer A containing 10% glycerol and stored in aliquots at -70°C until used for radioligand binding.” left out
# as §3
# [9] = biological target: CGRP receptors endogenously expressed in rat brain and peripheral tissues; parameters: method as in Van Rossum et al., 1994; conditions: previously published equilibrium dissociation constant; ref Van Rossum et al., 1994; read-out: Reported Wild Type, Kd of radioligand; cited from earlier work
# [10] = system: HEK293T-RAMP1 membranes without CLR; assay: Radioligand binding, non-transfected or empty-vector HEK293T-RAMP1 membranes; conditions: increasing radioligand concentrations, data not shown
# Method: as §2, with “The final crude membrane pellet was resuspended in buffer A containing 10% glycerol and stored in aliquots at -70°C until used for radioligand binding.” left out
# as §3
# [11] = biological target: CLR-RAMP1 heterodimer with the L24A CLR mutant (UniProt Q16602); assay: radioligand binding; competition: increasing unlabeled peptide against specific [125I-Tyr]CGRP(8–37) binding on crude membranes of transiently transfected HEK293T-RAMP1 cells, same buffer as the saturation binding; Ki from IC50 by the method of Cheng and Prusoff
# [12] = biological target: CLR-RAMP1 heterodimer, wild type calcitonin-like receptor (CLR) with receptor-activity-modifying protein-1 (RAMP1) (UniProt Q16602); assay: as above
# [13] = biological target: CLR-RAMP1 heterodimer with the L24A,L34A CLR double mutant (UniProt Q16602); assay: as above
# [14] = biological target: CLR-RAMP1 heterodimer with the L34A CLR mutant (UniProt Q16602); assay: as above
# [15] = biological target: T2, CLR-RAMP1 heterodimer with the L24A,L34A CLR double mutant (human | , UniProt Q16602 23-461; O60894 27-148, L24A | L34A); assay: as above
# [16] = biological target: T3, CLR-RAMP1 heterodimer with the L34A CLR mutant (human | , UniProt Q16602 23-461; O60894 27-148, L34A); assay: as above
# [17] = biological target: T4, CLR-RAMP1 heterodimer, wild type calcitonin-like receptor (CLR) with receptor-activity-modifying protein-1 … (human | , UniProt Q16602 23-461; O60894 27-148); assay: as above
# [18] = biological target: T5, CLR-RAMP1 heterodimer with the L24A CLR mutant (human | , UniProt Q16602 23-461; O60894 27-148, L24A); assay: as above
# [19] = biological target: T2, CLR-RAMP1 heterodimer with the …; assay: cell-based or functional assay
# [20] = biological target: T3, CLR-RAMP1 heterodimer with the L34A CLR …; assay: cell-based or functional assay
# [21] = biological target: T4, CLR-RAMP1 heterodimer, wild type …; assay: cell-based or functional assay
# [22] = biological target: T5, CLR-RAMP1 heterodimer with the L24A CLR …; assay: cell-based or functional assay
molecule,measurement,setting,value
NCCCC[C@H](NC(=O)[C@@H](Cc1cc(Br)c(O)c(Br)c1)NC(=O)N1CCC(N2Cc3ccccc3NC2=O)CC1)C(=O)N1CCN(c2ccncc2)CC1 [BIBN4096BS],affinity for endogenous CGRP receptor,[1],high affinity
same,displacement in competition binding,CGRP receptor,"selectively be displaced in competition binding assays by CGRP and the receptor antagonist, CGRP(8–37)"
CC(C)C[C@H](NC(=O)CNC(=O)[C@H](C)NC(=O)[C@H](CC(C)C)NC(=O)[C@H](CCCNC(=N)N)NC(=O)[C@H](Cc1c[nH]cn1)NC(=O)[C@@H](NC(=O)[C@@H](NC(=O)[C@@H]1CSSC[C@H](NC(=O)[C@H](C)N)C(=O)N[C@@H](CC(=O)O)C(=O)N[C@@H]([C@@H](C)O)C(=O)N[C@@H](C)C(=O)N[C@@H]([C@@H](C)O)C(=O)N1)C(C)C)[C@@H](C)O)C(=O)N[C@@H](CC(C)C)C(=O)N[C@@H](CO)C(=O)N[C@@H](CCCNC(=N)N)C(=O)N[C@@H](CO)C(=O)NCC(=O)NCC(=O)N[C@H](C(=O)N[C@H](C(=O)N[C@@H](CCCCN)C(=O)N[C@@H](CC(N)=O)C(=O)N[C@@H](CC(N)=O)C(=O)N[C@@H](Cc1ccccc1)C(=O)N[C@H](C(=O)N1CCC[C@H]1C(=O)N[C@H](C(=O)N[C@@H](CC(N)=O)C(=O)N[C@H](C(=O)NCC(=O)N[C@@H](CO)C(=O)N[C@@H](CCCCN)C(=O)N[C@@H](C)C(N)=O)C(C)C)[C@@H](C)O)C(C)C)C(C)C)C(C)C [CGRP(1–36)] (H-ACDTATCVTHRLAGLLSRSGGVVKNNFVPTNVGSKA-NH2; disulfide 2-7 (inferred); N-terminus assumed),maximal cAMP response,"[2]; CGRP(1–36) compared with CGRP, CGRP(1–19) compared with CGRP(1–36) and CGRP",maximal response was similar
same,"fold loss of EC50 potency vs CGRP, wild type",[2]; cAMP EC50 of the fragment compared with CGRP,"over 2,600 fold"
same,"cAMP potency compared with CGRP, wild type",[2]; compared to CGRP,significantly less
same,affinity at leucine mutants compared with wild type,[3],no differences
same,cAMP potency at leucine mutants compared with wild type,[4],no different; also recorded: no significant potency differences
same,amylase release,[5],increase amylase release
same,affinity for wild type CLR compared with CGRP,[6],significant affinity loss
Ac-SGGVVKNNFVPTNVGSKAF-NH2 [AcCGRP(19–37)],Kd,[7],0.933 µM
same,affinity at leucine mutants compared with wild type,[3],significantly different (P < .05) from the wild type receptor
CC(C)C[C@H](NC(=O)CNC(=O)[C@H](C)NC(=O)[C@H](CC(C)C)NC(=O)[C@H](CCCNC(=N)N)NC(=O)[C@H](Cc1c[nH]cn1)NC(=O)[C@@H](NC(=O)[C@@H](NC(=O)[C@@H](N)Cc1ccc(O)c(I)c1)C(C)C)[C@@H](C)O)C(=O)N[C@@H](CC(C)C)C(=O)N[C@@H](CO)C(=O)N[C@@H](CCCNC(=N)N)C(=O)N[C@@H](CO)C(=O)NCC(=O)NCC(=O)N[C@H](C(=O)N[C@H](C(=O)N[C@@H](CCCCN)C(=O)N[C@@H](CC(N)=O)C(=O)N[C@@H](CC(N)=O)C(=O)N[C@@H](Cc1ccccc1)C(=O)N[C@H](C(=O)N1CCC[C@H]1C(=O)N[C@H](C(=O)N[C@@H](CC(N)=O)C(=O)N[C@H](C(=O)NCC(=O)N[C@@H](CO)C(=O)N[C@@H](CCCCN)C(=O)N[C@@H](C)C(=O)N[C@@H](Cc1ccccc1)C(N)=O)C(C)C)[C@@H](C)O)C(C)C)C(C)C)C(C)C [[^125I-Tyr]CGRP(8–37)],Bmax (maximal specific binding),[8],285 ± 206 fmols/mg
same,"fold decrease in affinity, mutant receptors vs wild type","[3]; L34A and L24A,L34A compared to wild type CLR",~10 fold
same,Kd,[9],0.0002 µM
same,specific binding without CLR,[10],no specific binding
AcCGRP(19–37) (peptide),Ki,[11],3 µM
same,Ki,[12],0.227 µM
same,Ki,[13],2 µM
same,Ki,[14],4.6 µM
ACDTATCVTHRLAGLLSRSGGVVKNNFVPTNVGSKA-NH2 (not fully specified (bridges); cysteine pairing not given here) [CGRP(1–36)],Ki,[15],> 10 µM
same,Ki,[16],> 10 µM
same,Ki,[17],> 10 µM
same,Ki,[18],> 10 µM
same,EC50 of cAMP generation in transiently transfected HEK293T-RAMP1 cells,[19],4.2 µM
same,EC50 of cAMP generation in transiently transfected HEK293T-RAMP1 cells,[20],5.6 µM
same,EC50 of cAMP generation in transiently transfected HEK293T-RAMP1 cells,[21],4.3 µM
same,EC50 of cAMP generation in transiently transfected HEK293T-RAMP1 cells,[22],3.4 µM
